Assay results published in patent publication US11000505B2 (priority 2010, dated 2021).
“And” between values parts separate entries of the source, which are not always exact repeats. Identical values can stand only once.

Assays:
[1] = test system: pial artery; details: pig, in vivo
[2] = molecular target: T1, cloned human mu receptor (Homo sapiens, UniProt P35372); assay: In-vitro affinity determination, [3H]DAMGO competition; type: binding
T1 construct: expressed in transfected cells; host or cells: HEK cells (NIMH PDSP)

[3] = molecular target: T2, cloned rat kappa receptor (Rattus norvegicus, UniProt P34975); assay: biochemical; type: binding
T2 construct: expressed in transfected cells; host or cells: HEK cells (NIMH PDSP)

[4] = test system: cAMP; assay: cAMP in CSF by ELISA (Example 7); type: in vivo, newborn pigs
Description: Newborn pigs (aged up to 6 days, 1.1-2.0 kg) of both genders were used for this study. Protocols were approved by the Institutional Animal Care and Use Committee of the University of Pennsylvania (Philadelphia). The newborn piglet model was used because its brain is gyrencepahalic and contains more white matter than grey matter, which is similar to that of humans. Furthermore, the head is large enough for the insertion of a cranial window and vascular visualization. Animals were induced with isoflurane (1-2 minimum alveolar concentration) and maintained with α-chloralose (80-100 mg/kg supplemented with 5 mg/kg·h, IV). Both femoral arteries were catheterized to monitor blood pressure and blood gas to maintain a constant carbon dioxide and pH. A catheter was inserted into the right femoral vein for medication administration. Animals were ventilated with room air after tracheal intubation. A heating pad was used to maintain the rectal temperature of animals at 37-39° C. A closed cranial window on the top of the head of the piglet was placed for direct pial artery visualization and diameter measurement. The closed cranial window consisted of three parts: a stainless steel ring, a circular glass cover slip, and three ports consisting of 17-gauge hypodermic needles attached to three precut holes in the stainless steel ring. CSF was collected through a cranial window port for cAMP measurement in some animals. […] Vascular diameter was measured from a video monitor that was connected to the camera with a video microscaler (VPA 550; For-A-Corp., Los Angeles, Calif.) by the investigator who administered the medication.
The cerebral cortical periarachnoid CSF samples were collected before and 10 min afterward administration of herkinorin and NTP to measure the cAMP level. […] Commercially available ELISA kits (Assay Designs, Ann Arbor, Mich.) were used to quantify cAMP concentrations.

[5] = test system: pial artery; details: pig, in vivo; remark: listed apart in the source
[6] = test system: mu, kappa and delta receptors; details: competition binding assays; cited from earlier work
[7] = test system: pial artery; type: in vivo, piglets; details: in vivo
[8] = test system: pial artery; type: in vivo, newborn pigs; details: pig, in vivo

T1 sequence (P35372 whole entry): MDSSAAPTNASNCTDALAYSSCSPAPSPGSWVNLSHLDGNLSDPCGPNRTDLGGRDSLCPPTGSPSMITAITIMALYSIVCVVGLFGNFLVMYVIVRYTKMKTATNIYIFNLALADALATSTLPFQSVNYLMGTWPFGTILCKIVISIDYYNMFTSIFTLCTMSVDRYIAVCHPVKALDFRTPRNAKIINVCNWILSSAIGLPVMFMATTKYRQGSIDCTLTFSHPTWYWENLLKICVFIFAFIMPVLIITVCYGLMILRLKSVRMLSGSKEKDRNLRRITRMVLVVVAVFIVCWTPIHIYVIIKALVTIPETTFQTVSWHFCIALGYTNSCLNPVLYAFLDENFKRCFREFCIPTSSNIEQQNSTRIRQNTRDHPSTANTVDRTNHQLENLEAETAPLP
T2 sequence (P34975 whole entry): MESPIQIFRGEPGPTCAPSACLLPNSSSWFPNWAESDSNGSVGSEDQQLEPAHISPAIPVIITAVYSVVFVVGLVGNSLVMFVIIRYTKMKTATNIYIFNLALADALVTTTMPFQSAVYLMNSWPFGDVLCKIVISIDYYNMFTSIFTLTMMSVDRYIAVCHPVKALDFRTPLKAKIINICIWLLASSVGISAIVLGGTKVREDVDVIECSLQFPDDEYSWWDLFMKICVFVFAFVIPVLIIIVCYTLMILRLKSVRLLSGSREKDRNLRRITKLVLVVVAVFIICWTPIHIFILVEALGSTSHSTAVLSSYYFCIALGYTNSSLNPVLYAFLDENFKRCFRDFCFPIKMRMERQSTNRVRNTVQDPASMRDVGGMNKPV

O=c1[nH]c2cc(C(F)(F)F)ccc2n1-c1cc(C(F)(F)F)ccc1O [NS1619, reference compound]
dilation response in presence of iberiotoxin [1]: blocked the dilation effects of NS1619

CC1(C)Oc2ccc(C#N)cc2C(N2CCCC2=O)C1O (stereo not drawn) [cromakalim, reference compound]
dilation response in presence of glibenclamide [1]: blocked the dilation in response to cromakalim

COC(=O)[C@@H]1C[C@H](OC(=O)c2ccccc2)C(=O)[C@H]2[C@@]1(C)CC[C@H]1C(=O)O[C@H](c3ccoc3)C[C@]21C [herkinorin]
Ki ([2]; HEK cells over-expressing receptor): 45 nM | binding affinity to mu receptor relative to kappa receptor ([2]; mu stronger than kappa): approximately 4 fold | Ki [3]: 184 nM | cAMP levels in the CSF ([4]; 10 min after administration): significantly increased cAMP levels in the CSF | elevated cAMP levels with NTP ([4]; pig, in vivo): blocked by NTP | elevated cAMP levels with β-FNA ([4]; pig, in vivo): not affected after β-FNA administration | concentration required to effectively dilate pial arteries [5]: 0.1 nM | dilation in presence of NTP [5]: totally abolished by norbinaltorphimine | dilation in presence of Rp-cAMPS [5]: blunted herkinorin-mediated pial artery dilation | dilation in presence of β-FNA [5]: not affected by β-FNA | pial artery diameter dilation [5]: 10.6% and 17.8% | systemic blood pressure [5]: without significant systemic blood pressure variation | selectivity for mu over delta receptors [6]: approximately 98 fold | selectivity for mu over kappa receptors [6]: approximately 8 fold

CC(C)NCC(O)c1ccc(O)c(O)c1 (stereo not drawn) [isoproterenol, reference compound]
pial artery response to the agent before and after hypoxia/ischemia [7]: unchanged in all groups | dilation in presence of NTP [5]: unchanged by either NTP or β-FNA | dilation in presence of β-FNA [5]: unchanged by either NTP or β-FNA | dilation response in presence of naloxone [1]: unaffected | dilation response in presence of norbinaltorphimine [1]: unaffected | pial artery response to the agent before and after HI [8]: no change was observed

methionine enkephalin [reference compound]
dilation response in presence of naloxone [1]: blocked the dilation effects | dilation response in presence of norbinaltorphimine [1]: blocked the dilation effects
